Source: patent US20240025863A1, “SOS1 PROTEIN DEGRADERS, PHARMACEUTICAL COMPOSITIONS THEREOF, AND THEIR THERAPEUTIC APPLICATIONS” (BioTheryX, Inc., priority 2020, published 2024)

Experiments:
Format in all cases: cell-based
SW48 cells (wt) = experiment: Cell viability assay (CellTiter-Glo), SW48 cells; settings: Homo sapiens, 72 h; SW48 cells, 3 days incubation, CellTiter-Glo luminescence; read-out: Inhibition of Cancerous Cells IC50 SW48 (wt)
Procedure, shortened: (§1)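 Luminescence readout (CellTiter-Glo, 10 min with shaking) after 3-day compound or DMSO exposure at 37 °C. H358/SW48 in RPMI 1640, Lovo/SW480 in DMEM, assay medium with 2.5% FBS; Lovo seeded at 4,000 or 1,000 cells/well versus 2,000 or 500 for others.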

SW480 cells (G12V) = experiment: Cell viability assay (CellTiter-Glo), SW480 cells; settings: Homo sapiens, 72 h; SW480 cells, 3 days incubation, CellTiter-Glo luminescence; read-out: Inhibition of Cancerous Cells IC50 SW480 (G12V)
Procedure, shortened: as §1

Lovo cells (G13D) = experiment: Cell viability assay (CellTiter-Glo), Lovo cells; settings: Homo sapiens, 72 h; Lovo cells, 3 days incubation, CellTiter-Glo luminescence; read-out: Inhibition of Cancerous Cells IC50 Lovo (G13D)
Procedure, shortened: as §1

AsPC-1 cells (G12D) = experiment: Cell viability assay (CellTiter-Glo), AsPC-1 cells; settings: Homo sapiens, ASPC1, 72 h, 3 days incubation, CellTiter-Glo luminescence, read-out: Inhibition of Cancerous Cells IC50 AsPC-1 (G12D)
Experimental: H358, H23, SW48, and AsPC-1 cells were cultured in RPMI 1640 media supplemented with 10% fetal bovine serum, streptomycin, and penicillin. Lovo and SW480 cells were cultured in DMEM media supplemented with 10% fetal bovine serum, streptomycin, and penicillin. The cell lines were plated in their respective medium supplemented with 2.5% fetal bovine serum, streptomycin, and penicillin. All cell lines were plated in white walled 96-well plates at 2,000 cells/well or 384-well plates at 500 cells/well, except Lovo, which were plated at 4,000 or 1,000 cells/well, respectively. The cells were incubated in DMSO (control) or a compound for 3 days at 37° C. under 5% CO2. A CELLTITER-GLO® reagent (100 μL) was then added to each well. After a 10 min incubation with shaking, luminescence was measured using an ENVISION® multimode plate reader.

H358 cells (G12C) = experiment: Cell viability assay (CellTiter-Glo), H358 cells; settings: Homo sapiens, NCI-H358, 72 h; H358 cells, 3 days incubation, CellTiter-Glo luminescence; read-out: Inhibition of Cancerous Cells IC50 H358 (G12C)
Procedure, shortened: as §1

SMILES	IC50 (SW48 cells (wt)) [nM]	IC50 (SW480 cells (G12V)) [nM]	IC50 (Lovo cells (G13D)) [nM]	IC50 (AsPC-1 cells (G12D)) [nM]	IC50 (H358 cells (G12C)) [nM]
COc1cc2c(N[C@H](C)c3cccc(Br)c3)nc(C)nc2cc1OCCN1CCC(CN2CCC(c3cc(F)cc4c3CN(C3CCC(=O)NC3=O)C4=O)CC2)CC1 (stereo partly drawn) [Compound A65, 3-(4-(1-((1-(2-((4-(((R)-1-(3-Bromophenyl)ethyl)amino)-6-methoxy-2-methyl-quinazolin-7-yl)oxy)ethyl)piperidin-4-yl)methyl)piperidin-4-yl)-6-fluoro-1-oxoisoindolin-2-yl)-piperidine-2,6-dione]	970	1100	1100	3300	1600
COc1cc2c(N[C@H](C)c3cccc(Br)c3)nc(C)nc2cc1OCCN1CCN(CCN2CCC(c3cc(F)cc4c3CN(C3CCC(=O)NC3=O)C4=O)CC2)CC1 (stereo partly drawn) [Compound A66, 3-(4-(1-(2-(4-(2-((4-(((R)-1-(3-Bromophenyl)ethyl)amino)-6-methoxy-2-methyl-quinazolin-7-yl)oxy)ethyl)piperazin-1-yl)ethyl)piperidin-4-yl)-6-fluoro-1-oxoisoindolin-2-yl)piperidine-2,6-dione]	3800	9700	5800	> 10000	8000
COc1cc2c(N[C@H](C)c3cccc(Br)c3)nc(C)nc2cc1OCCN1CCN(CCN2CCC(c3cc4c(cc3F)C(=O)N(C3CCC(=O)NC3=O)C4)CC2)CC1 (stereo partly drawn) [Compound A67, 3-(5-(1-(2-(4-(2-((4-(((R)-1-(3-Bromophenyl)ethyl)amino)-6-methoxy-2-methyl-quinazolin-7-yl)oxy)ethyl)piperazin-1-yl)ethyl)piperidin-4-yl)-6-fluoro-1-oxoisoindolin-2-yl)piperidine-2,6-dione]	1100	2700	1000	2100	1700
COc1cc2c(N[C@@H](C)c3cc(N)cc(C(F)(F)F)c3)nc(C)nc2cc1OCCCCCCCN1CCC(c2cc3c(cc2F)C(=O)N(C2CCC(=O)NC2=O)C3)CC1 (stereo partly drawn) [Compound A68, 3-(5-(1-(7-((4-(((S)-1-(3-Amino-5-(trifluoromethyl)phenyl)ethyl)amino)-6-methoxy-2-methylquinazolin-7-yl)oxy)heptyl)piperidin-4-yl)-6-fluoro-1-oxoisoindolin-2-yl)piperidine-2,6-dione]	500	530	630	1500	690
CN[C@@H](C)C(=O)N[C@H](C(=O)N1CCC[C@H]1c1nc(C(=O)c2cccc(OCCCCCCOc3cc4nc(C)nc(N[C@H](C)c5cccc(Br)c5)c4cc3OC)c2)cs1)C1CCCCC1 [Compound B1, (S)—N—((S)-2-((S)-2-(4-(3-((6-((4-(((R)-1-(3-bromophenyl)ethyl)amino)-6-methoxy-2-methylquinazolin-7-yl)oxy)hexyl)oxy)benzoyl)thiazol-2-yl)pyrrolidin-1-yl)-1-cyclohexyl-2-oxoethyl)-2-(methylamino)propanamide]	1100	980	720	3000	2400
CN[C@@H](C)C(=O)N[C@H](C(=O)N1CCC[C@H]1c1nc(C(=O)c2cccc(OCCCCCCCCOc3cc4nc(C)nc(N[C@H](C)c5cccc(Br)c5)c4cc3OC)c2)cs1)C1CCCCC1 [Compound B2, (S)—N—((S)-2-((S)-2-(4-(3-((8-((4-(((R)-1-(3-Bromophenyl)ethyl)amino)-6-methoxy-2-methylquinazolin-7-yl)oxy)octyl)oxy)benzoyl)thiazol-2-yl)pyrrolidin-1-yl)-1-cyclohexyl-2-oxoethyl)-2-(methylamino)propanamide]	980	500	480	1200	980
CN[C@@H](C)C(=O)N[C@H](C(=O)N1CCC[C@H]1c1nc(C(=O)c2cccc(OCCCCCCCCCCOc3cc4nc(C)nc(N[C@H](C)c5cccc(Br)c5)c4cc3OC)c2)cs1)C1CCCCC1 [Compound B3, (S)—N—((S)-2-((S)-2-(4-(3-((10-((4-(((R)-1-(3-Bromophenyl)ethyl)amino)-6-methoxy-2-methylquinazolin-7-yl)oxy)decyl)oxy)benzoyl)thiazol-2-yl)pyrrolidin-1-yl)-1-cyclohexyl-2-oxoethyl)-2-(methylamino)propanamide]	4700	2300	1400	5000	2200
CN[C@@H](C)C(=O)N[C@H](C(=O)N1CCC[C@H]1c1nc(C(=O)c2cccc(OCCCCCCCCCCCCOc3cc4nc(C)nc(N[C@H](C)c5cccc(Br)c5)c4cc3OC)c2)cs1)C1CCCCC1 [Compound B4, (S)—N—((S)-2-((S)-2-(4-(3-((12-((4-(((R)-1-(3-Bromophenyl)ethyl)amino)-6-methoxy-2-methylquinazolin-7-yl)oxy)dodecyl)oxy)benzoyl)thiazol-2-yl)pyrrolidin-1-yl)-1-cyclohexyl-2-oxoethyl)-2-(methylamino)propanamide]	> 10000	> 10000	4000	> 10000	7600
CN[C@@H](C)C(=O)N[C@H](C(=O)N1C[C@@H](NC(=O)CCCCCCOc2cc3nc(C)nc(N[C@H](C)c4cccc(Br)c4)c3cc2OC)C[C@H]1C(=O)N[C@@H]1CCCc2ccccc21)C1CCCCC1 [Compound B5, (2S,4S)-4-(7-((4-(((R)-1-(3-bromophenyl)ethyl)amino)-6-methoxy-2-methyl-quinazolin-7-yl)oxy)heptanamido)-1-((S)-2-cyclohexyl-2-((S)-2-(methylamino)propanamido)-acetyl)-N—((R)-1,2,3,4-tetrahydronaphthalen-1-yl)pyrrolidine-2-carboxamide]	750	440	770	1500	650
COc1cc2c(N[C@H](C)c3cccc(Br)c3)nc(C)nc2cc1OCCCCCCCCNC(=O)[C@H](CC(C)C)NC(=O)[C@@H](O)[C@H](N)Cc1ccccc1 [Compound B7, (S)-2-((2S,3R)-3-Amino-2-hydroxy-4-phenylbutanamido)-N-(8-((4-(((R)-1-(3-bromophenyl)ethyl)amino)-6-methoxy-2-methylquinazolin-7-yl)oxy)octyl)-4-methylpentanamide]	920	610	680	1200	1300
COc1cc2c(N[C@H](C)c3cccc(Br)c3)nc(C)nc2cc1OCCCCCCCCCCCCNC(=O)[C@H](CC(C)C)NC(=O)[C@@H](O)[C@H](N)Cc1ccccc1 [Compound B9, (S)-2-((2S,3R)-3-Amino-2-hydroxy-4-phenylbutanamido)-N-(12-((4-(((R)-1-(3-bromophenyl)ethyl)amino)-6-methoxy-2-methylquinazolin-7-yl)oxy)dodecyl)-4-methylpentanamide]	1400	960	730	2700	1200
CN[C@@H](C)C(=O)N[C@H](C(=O)N1C[C@@H](NC(=O)CCCCCCCCCCCCOc2cc3nc(C)nc(N[C@H](C)c4cccc(Br)c4)c3cc2OC)C[C@H]1C(=O)N[C@@H]1CCCc2ccccc21)C1CCCCC1 [Compound B10, (2S,4S)-4-(13-((4-(((R)-1-(3-Bromophenyl)ethyl)amino)-6-methoxy-2-methyl-quinazolin-7-yl)oxy)tridecanamido)-1-((S)-2-cyclohexyl-2-((S)-2-(methylamino)propanamido)-acetyl)-N—((R)-1,2,3,4-tetrahydronaphthalen-1-yl)pyrrolidine-2-carboxamide]	1300	720	670	1500	1600
CN[C@@H](C)C(=O)N[C@H](C(=O)N1C[C@@H](NC(=O)CCCCCCCCCCOc2cc3nc(C)nc(N[C@H](C)c4cccc(Br)c4)c3cc2OC)C[C@H]1C(=O)N[C@@H]1CCCc2ccccc21)C1CCCCC1 [Compound B11, (2S,4S)-4-(11-((4-(((R)-1-(3-Bromophenyl)ethyl)amino)-6-methoxy-2-methyl-quinazolin-7-yl)oxy)undecanamido)-1-((S)-2-cyclohexyl-2-((S)-2-(methylamino)propanamido)-acetyl)-N—((R)-1,2,3,4-tetrahydronaphthalen-1-yl)pyrrolidine-2-carboxamide]	530	360	390	960	530
